From EP1477171A1, “Intestinal mineral absorption capacity improver” (Kao Corporation, priority 2003, dated 2004)

Experiments:
[1] = pH of a 2 mass% aqueous solution; type: physicochemical
[2] = test system: SD rats; assay: 45Ca level in blood plasma after oral 45Ca calcium chloride in rats fed the test diet for 10 days (intestinal calcium absorption capacity); type: in vivo; details: test diet (1.88 mass% in feed, 15 g/day, 10 days) vs control diet; 24 h fast; plasma 30 minutes, 1 hour and 2 hours after oral ^45Ca calcium chloride; Scheffe method, significant level less than 1%
Experimental: Rats (8-week-old, male, SD rats), 10 rats consisting of one group, were each fed with 15 g/day of a control diet or a glucose 1-phosphate sodium salt diet as shown in Table 1 for 10 days. As the glucose 1-phosphate sodium salt, product of Solchem (Italy) was employed and the feed was adjusted to have a calcium concentration of 0.2 mass% and a P concentration of 0.4 mass%. The rats were allowed to take distilled water ad libitum.
After the rats were fasted for 24 hours, they were orally administered with 1.5 mL (containing ^45CalµCi), per average weight, of a 1 mg/mL calcium chloride solution containing ^45Ca singly. The blood plasma was obtained from about 0.5 mL of the blood collected from their carotid artery 30 minutes, 1 hour and 2 hours after administration. The ^45Ca level in 100 µL of the blood plasma was measured by a liquid scintillation counter.
A change in the ^45Ca level in 100 µL of the blood plasma separated from the […] 30 minutes, 1 hour and 2 hours after the administration of a ^45Ca-containing calcium chloride solution was statically analyzed by the Scheffe method. […]

[3] = test system: SD rats; assay: duration of the intestinal calcium absorption capacity improving effect after feeding is terminated (45Ca level in plasma); type: in vivo; details: test diet 10 days, then control diet; for 3 days after termination; relative to the control group
Text: As in Example 1, 15 g/day of a control diet and a test diet as shown in Table 1 were fed to groups of rats (8-week-old, male, SD rats), each group consisting of 8 rats, for 10 days, respectively. The rat groups fed with the test diet were divided into three groups and as the feed after 10 days, the control diet was fed to each group and feeding of the glucose 1-phosphate sodium salt was terminated. The termination period was 1 day, 3 days and 7 days. The ^45Ca level in the blood plasma after completion of the feeding period was measured in accordance with the method of Example 1.

Compound: O=P(O)(O)OC1O[C@H](CO)[C@@H](O)[C@H](O)[C@H]1O (stereo partly shown) [Glucose-1-phosphoric acid, reference compound]
- pH of a 2 mass% aqueous solution [1]: 1.5

Compound: glucose 1-phosphate sodium salt
- pH of a 2 mass% aqueous solution [1]: about 8.0
- ^45Ca level in the blood plasma [2]: statistically significant increase
- ^45Ca level in the plasma after feeding was terminated [3]: significant increase
